# Experimental data: patent US20090215851A1, “Method of Preparing a Porphyrin Derivative, a Porphyrin Derivative, Use of Said Porphyrin derivative and a pharmaceutical composition containing said porphyrin derivative” (PHOTOBIOCHEM N.V., priority 2005, published 2009)
# Tests used:
# [1] = system: subcutaneous mammary CaNT tumors; test: Mouse tumor model, PDT; type: in vivo; conditions: for persistence of phototoxic effect with time after injection (FIG. 9): different intervals between injection and illumination
# Experimental: Experiments were performed to investigate the suitability of compound 7 for the photodynamic therapy (PDT) treatment of tumors, in particular subcutaneous mammary CaNT tumors. These experiments were performed by Photopharmica Ltd. under the guidance of Professor Stan Brown in the Centre for Photobiology and Photodynamic Therapy (Leeds, UK). Different doses of compound 7 (dissolved in Water:PEG-400:1-Methyl-2-pyrrolidone (50:30:20 v/v), with a maximum concentration of 0.5 mg/ml at pH 8.1) were intravenously injected and tumors were illuminated with red light (685±15 nm, 60 J/cm^2, 50 mW/cm^2) at different intervals after injection.
# [2] = system: CAM blood vessels; test: AMD model: CAM (chorioallantoic membrane) model in fertilized chicken eggs, PDT; type: in vivo
# Experimental: Age-related Macula Degeneration (AMD) is an eye affliction that eventually leads to blindness. For studies to treat this affliction, an AMD model exists, the so-called CAM (chorioallantoic membrane) model in fertilized chicken eggs. The blood vessels in this chorioallantoic membrane mimic a number of relevant features characteristic for the blood vessels in the eye involved in causing AMD. Experiments with compound 7 were performed at the department of Professor Hubert van den Bergh of the EPFL in Lausanne. Different doses of compound 7 (dissolved in Water:PEG-400:1-Methyl-2-pyrrolidone (50:30:20 v/v), pH 8.1) were injected in the CAM blood vessels and the vessels were illuminated after an 1 minute time-to-treat interval using different amounts of light energy from a far red light source. In the experiments, Visudyne™ (which has an absorption peak at 690 nm), the only photosensitizer approved for clinical use in AMD, was used as the control.
# Compound 7 was as potent (already with a low light dose of 24 J/cm^2 and 1 mg/kg of body weight of photosensitizer 7 the desired grade 3 vessel damage could be obtained) as Visudyne™ in closing blood vessels in this model. […] (Legend: A: Compound 7 fluorescence angiography before PDT; B: compound 7 fluorescence angiography during PDT, shown in the circle is the red light irradiation area; C: sulforhodamine 101 fluorescence angiography 18 hours post-treatment).
# [3] = Photochemical singlet oxygen generation (emission at 1270 nm after laser excitation in toluene); type: physicochemical; conditions: laser excitation 532 nm, singlet oxygen generating conditions
# Experimental: Compound B dissolved in toluene was excited with a 9 mJ, 15 ns laser pulse at 532 nm from a home-built Q-switched frequency doubled Nd:YAG laser operating at 10 Hz. Emission from singlet oxygen at 1270 nm was detected at 90° to the quartz cuvette by an InGaAs photodiode, amplified and then signal-averaged (256 shots) on a digital oscilloscope (HP infinium). A 1260 nm interference filter (FWHM=75 nm) was used to protect the detector from laser light and sensitizer fluorescence. Typical decay times were 28±1 μs, which is characteristic for singlet oxygen decay in toluene (M. Okamoto et al, J. Phys. Chem., 1993, 97, pp. 177-180.) Tetraphenylporphyrin was used as a standard to determine the relative singlet oxygen yield (ΦΔ) (F. Wilkinson, et al, J. Phys. Chem. Ref. Data., 1993, 22, pp. 113-2162.). The relative quantum yield for compound 5 in air saturated toluene was 0.72. […] This stability of the compound according to the invention as exemplified by compound 5 towards singlet oxygen is surprising. In many porphyrins with appending double bonds the double bond reacts chemically with the singlet oxygen generated by the system. […]
# [4] = system: A 549 lung carcinoma cells; test: Dark toxicity test, MTT assay; type: cell-based; conditions: overnight in the dark at 37° C; concentrations up to 30 μg/ml
# Experimental: First a toxicity test of compound 5 in cultures of A 549 lung carcinoma cells (American Type Culture Collection) was carried out in the dark. The cells were incubated in a medium containing compound 5 at various concentrations. The cultures were left overnight in the dark at 37° C. Using the MTT (3-(4,5-dimethylthiazol-2-yl)-2,5-diphenyltetrazolium bromide) assay based on the methods of Tada et al (J. Immunol. Meth., 1986, 93, pp. 157-165) and J. Carmichael et al (Cancer Res., 1987, 47, pp. 936-942.) the cell survival was obtained as a percentage of untreated cells of control (FIG. 2). Even at concentrations up to 30 μg/ml in the medium cell survival was complete (within the experimental error), showing that compound 5 is essentially not toxic towards the lung carcinoma cells in the dark.
# [5] = system: A 549 lung carcinoma cells; test: Photodynamic cytotoxicity after illumination with white halogen light, MTT assay; type: cell-based; conditions: 0.10 μg/ml
compound,measurement,setting,value
"Oc1cccc(-c2c3nc(c(-c4cccc(O)c4)c4ccc([nH]4)c(-c4cccc(O)c4)c4nc(c(-c5cccc(O)c5)c5ccc2[nH]5)CC4)C=C3)c1 [Foscan, mTHPC, reference compound]",potency relative to compound 7,"[1]; mouse tumor model, estimated",more potent than compound 7
"2′-cyano-8′-formyl-N′-methyl-1′,1a′,5a′,6′-tetrahydroacrido[4,5,5a,6-bcd]-annulated 2,3-dihydromesoporphyrin dicarboxylic acid [compound 7]",effect of PDT on small CAM blood vessels (FIG. 7),"[2]; 12 J/cm^2 at 1 mg/kg body weight, angiography 18 hours post-treatment",closing of the small CAM blood vessels
same,potency in closing blood vessels compared with Visudyne™,"[2]; CAM model, far red light",as potent
same,leakage from the CAM blood vessels compared with Visudyne™,[2]; fluorescence microscopy,much less leakage
same,vessel damage grade,"[2]; light dose 24 J/cm^2, 1 mg/kg of body weight, 1 minute time-to-treat interval",3 grade
same,damage to internal tissue surrounding the tumor,[1]; after light treatment,comparable to Photofrin™
same,"damage to the skin overlaying the tumor, in contrast to Photofrin™",[1]; after light treatment,less damage
same,skin photosensitivity,"[1]; at the effective tumor dose, within 24 hours after drug administration",lacking skin photosensitivity
same,persistence of phototoxic effect with time after injection (FIG. 9),[1],vanishes rapidly in a couple of hours
same,"PDT effect, light 2 minutes after injection",[1]; drug-to-light interval 2 minutes,already present immediately
same,"PDT effect, light 180 minutes after injection",[1]; drug-to-light interval 180 minutes,virtually absent
same,dose with good tumor killing potential in vivo,"[1]; intravenous, red light 685±15 nm, 60 J/cm^2, 50 mW/cm^2",around 2.5 mg/kg
same,"effect on tumor-necrosis and skin damage, light a couple of hours after injection",[1]; treatment with light a couple of hours after injection,no effect
Photofrin™ [reference compound],"dose needed for the same percentage of necrotic area (FIG. 8), compared with compound 7",[1]; % necrotic area versus dose,requires a higher dose for the same effect
same,persistence of phototoxic effect with time after injection (FIG. 9),[1],remains phototoxic after several hours
same,potency relative to compound 7 (fold),"[1]; mouse tumor model, estimated",2.5 times less potent than compound 7
"2′-cyano-8′-formyl-N-methyl-1,1a,5a,6-tetrahydroacrido-[4,5,5a,6-bcd]-annulated 2,3-dihydromesoporphyrin dimethylester [compound 5]",photo degradation as measured by changes in the absorption spectrum,[3],No photo degradation
same,cell survival as a percentage of untreated cells (dark toxicity),[4],complete
same,lung carcinoma cells killed,"[5]; 4 hours incubation in the dark, then white halogen light 30 mW/cm^2 (270 kJ/m^2)",70%
same,photodynamic cytotoxicity compared with mTHPC (Foscan®),"[5]; 4 hours incubation, white halogen light 30 mW/cm^2 (270 kJ/m^2), FIG. 3",comparable
